Patent US20230150960A1, “COMPOSITIONS AND METHODS OF USING CYANINE DYES TO TARGET CANCER AND MITOCHONDRIA” (Thomas Jefferson University, priority 2020, published 2023)

How the values were obtained:
Type in all cases: physicochemical
[1] = Solubility of sodium deoxycholate-containing formulations (post vortexing, 30 min and overnight at 18° C.); conditions: compound 2 mg/mL; for solubility at 30 s: post vortexing
Experimental: (§1) Tables 5A, 5B, and 5C describe solubility experiments conducted with the indicated compounds under the listed conditions. Vortexing was conducted using a Denville Vortexer 59 (Denville Scientific Inc.), at maximum speed for 30 seconds. As used herein, the term overnight refers to a period lasting at least about 12-24 hours.

[2] = Solubility of BSA-containing formulations (post vortexing, 30 min and overnight at 18° C.); conditions: BSA-containing formulation, aqueous with cosolvent or surfactant or cyclodextrin, compound 2 mg/mL; for solubility at 30 min / solubility: 18 °C; for solubility at 30 min: after 30 minutes incubation at 18° C.; for solubility: overnight incubation at 18° C.; for solubility at 30 s: post vortexing
Experimental: Vortexing was conducted using a Denville Vortexer 59 (Denville Scientific Inc.), at maximum speed for 30 seconds. As used herein, the term overnight refers to a period lasting at least about 12-24 hours.

[3] = Solubility of glycerol-containing formulations (post vortexing, 30 min and overnight at 18° C.); conditions: glycerol-containing formulation, compound 2 mg/mL; for solubility at 30 min / solubility: 18 °C; for solubility at 30 min: after 30 minutes incubation at 18° C.; for solubility: overnight incubation at 18° C.; for solubility at 30 s: post vortexing
Experimental: as §1, with “3A, 3B,” for “5A, 5B,”, “3C” for “5C”

With `CCN1/C(=C/C=C/c2oc3ccccc3[n+]2CC)Oc2ccccc21` [JAC-R1, 3′,3′-Diethyloxacarbocyanine iodide] the “Solubility of sodium deoxycholate-containing formulations after 30 min incubation at 18° C., 50 mg/mL” value ([1]; sodium deoxycholate 50 mg/mL, after 30 minutes incubation at 18° C.) was “MFG”, the “Solubility of sodium deoxycholate-containing formulations after 30 min incubation at 18° C., 100 mg/mL” value ([1]; sodium deoxycholate 100 mg/mL, after 30 minutes incubation at 18° C.) was “MFG” and the solubility at 30 s ([1]; sodium deoxycholate-containing formulation, aqueous with cosolvent or surfactant or cyclodextrin, sodium deoxycholate 12.5 mg/mL, read-out: Solubility of sodium deoxycholate-containing formulations post vortexing, 12.5 mg/mL) was less than 2000 µg/mL. It also gave a solubility at 30 s ([1]; sodium deoxycholate-containing formulation, aqueous with cosolvent or surfactant or cyclodextrin, sodium deoxycholate 25 mg/mL, read-out: Solubility of sodium deoxycholate-containing formulations post vortexing, 25 mg/mL) of less than 2000 µg/mL, a solubility at 30 s ([1]; sodium deoxycholate-containing formulation, aqueous with cosolvent or surfactant or cyclodextrin, sodium deoxycholate 50 mg/mL, read-out: Solubility of sodium deoxycholate-containing formulations post vortexing, 50 mg/mL) of less than 2000 µg/mL and a solubility at 30 s ([1]; sodium deoxycholate-containing formulation, aqueous with cosolvent or surfactant or cyclodextrin, sodium deoxycholate 100 mg/mL, read-out: Solubility of sodium deoxycholate-containing formulations post vortexing, 100 mg/mL) of less than 2000 µg/mL. It also gave a solubility at 30 min ([1]; sodium deoxycholate-containing formulation, aqueous with cosolvent or surfactant or cyclodextrin, sodium deoxycholate 12.5 mg/mL, after 30 minutes incubation at 18° C.) of less than 2000 µg/mL, a solubility ([1]; sodium deoxycholate-containing formulation, aqueous with cosolvent or surfactant or cyclodextrin, sodium deoxycholate 12.5 mg/mL, overnight incubation at 18° C., read-out: Solubility of sodium deoxycholate-containing formulations after overnight incubation at 18° C., 12.5 mg/mL) greater than 2000 µg/mL and a solubility at 30 min ([2]; BSA 40 mg/mL, read-out: Solubility of BSA-containing formulations after 30 min incubation at 18° C., 40 mg/mL) of less than 2000 µg/mL. For the same molecule, the solubility ([2]; BSA 40 mg/mL, read-out: Solubility of BSA-containing formulations after overnight incubation at 18° C., 40 mg/mL) was less than 2000 µg/mL, the solubility at 30 min ([2]; BSA 60 mg/mL, read-out: Solubility of BSA-containing formulations after 30 min incubation at 18° C., 60 mg/mL) was less than 2000 µg/mL and the solubility ([2]; BSA 60 mg/mL, read-out: Solubility of BSA-containing formulations after overnight incubation at 18° C., 60 mg/mL) was less than 2000 µg/mL. For the same molecule, the solubility at 30 min ([2]; BSA 80 mg/mL, read-out: Solubility of BSA-containing formulations after 30 min incubation at 18° C., 80 mg/mL) was less than 2000 µg/mL, the solubility ([2]; BSA 80 mg/mL, read-out: Solubility of BSA-containing formulations after overnight incubation at 18° C., 80 mg/mL) was less than 2000 µg/mL and the solubility at 30 min ([2]; BSA 100 mg/mL, read-out: Solubility of BSA-containing formulations after 30 min incubation at 18° C., 100 mg/mL) was less than 2000 µg/mL. The solubility ([2]; BSA 100 mg/mL, read-out: Solubility of BSA-containing formulations after overnight incubation at 18° C., 100 mg/mL) was less than 2000 µg/mL, the solubility at 30 s ([2]; BSA 40 mg/mL, read-out: Solubility of BSA-containing formulations post vortexing, 40 mg/mL) was less than 2000 µg/mL and the solubility at 30 s ([2]; BSA 60 mg/mL, read-out: Solubility of BSA-containing formulations post vortexing, 60 mg/mL) was less than 2000 µg/mL. For the same molecule, the solubility at 30 s ([2]; BSA 80 mg/mL, read-out: Solubility of BSA-containing formulations post vortexing, 80 mg/mL) was less than 2000 µg/mL, the solubility at 30 s ([2]; BSA 100 mg/mL, read-out: Solubility of BSA-containing formulations post vortexing, 100 mg/mL) was less than 2000 µg/mL and the solubility at 30 min ([3]; aqueous with cosolvent or surfactant or cyclodextrin, 10% glycerol, read-out: Solubility of glycerol-containing formulations after 30 min incubation at 18° C., 10%) was less than 2000 µg/mL. It also gave a solubility ([3]; aqueous with cosolvent or surfactant or cyclodextrin, 10% glycerol, read-out: Solubility of glycerol-containing formulations after overnight incubation at 18° C., 10%) of less than 2000 µg/mL, a solubility at 30 min ([3]; aqueous with cosolvent or surfactant or cyclodextrin, 20% glycerol, read-out: Solubility of glycerol-containing formulations after 30 min incubation at 18° C., 20%) of less than 2000 µg/mL and a solubility ([3]; aqueous with cosolvent or surfactant or cyclodextrin, 20% glycerol, read-out: Solubility of glycerol-containing formulations after overnight incubation at 18° C., 20%) of less than 2000 µg/mL. It also gave a solubility at 30 min ([3]; aqueous with cosolvent or surfactant or cyclodextrin, 30% glycerol, read-out: Solubility of glycerol-containing formulations after 30 min incubation at 18° C., 30%) of less than 2000 µg/mL, a solubility ([3]; aqueous with cosolvent or surfactant or cyclodextrin, 30% glycerol, read-out: Solubility of glycerol-containing formulations after overnight incubation at 18° C., 30%) of less than 2000 µg/mL and a solubility at 30 min ([3]; aqueous with cosolvent or surfactant or cyclodextrin, 40% glycerol, read-out: Solubility of glycerol-containing formulations after 30 min incubation at 18° C., 40%) of less than 2000 µg/mL. The solubility ([3]; aqueous with cosolvent or surfactant or cyclodextrin, 40% glycerol, read-out: Solubility of glycerol-containing formulations after overnight incubation at 18° C., 40%) was less than 2000 µg/mL, the solubility at 30 min ([3]; aqueous with cosolvent or surfactant or cyclodextrin, 50% glycerol, read-out: Solubility of glycerol-containing formulations after 30 min incubation at 18° C., 50%) was less than 2000 µg/mL and the solubility ([3]; aqueous with cosolvent or surfactant or cyclodextrin, 50% glycerol, read-out: Solubility of glycerol-containing formulations after overnight incubation at 18° C., 50%) was less than 2000 µg/mL. It also gave a solubility at 30 min ([3]; 0% glycerol, read-out: Solubility of glycerol-containing formulations after 30 min incubation at 18° C., 0%) of less than 2000 µg/mL, a solubility ([3]; 0% glycerol, read-out: Solubility of glycerol-containing formulations after overnight incubation at 18° C., 0%) of less than 2000 µg/mL and a solubility at 30 s ([3]; aqueous with cosolvent or surfactant or cyclodextrin, 10% glycerol, read-out: Solubility of glycerol-containing formulations post vortexing, 10%) of less than 2000 µg/mL. For the same molecule, the solubility at 30 s ([3]; aqueous with cosolvent or surfactant or cyclodextrin, 20% glycerol, read-out: Solubility of glycerol-containing formulations post vortexing, 20%) was less than 2000 µg/mL, the solubility at 30 s ([3]; aqueous with cosolvent or surfactant or cyclodextrin, 30% glycerol, read-out: Solubility of glycerol-containing formulations post vortexing, 30%) was less than 2000 µg/mL and the solubility at 30 s ([3]; aqueous with cosolvent or surfactant or cyclodextrin, 40% glycerol, read-out: Solubility of glycerol-containing formulations post vortexing, 40%) was less than 2000 µg/mL. For the same molecule, the solubility at 30 s ([3]; aqueous with cosolvent or surfactant or cyclodextrin, 50% glycerol, read-out: Solubility of glycerol-containing formulations post vortexing, 50%) was less than 2000 µg/mL and the solubility at 30 s ([3]; 0% glycerol, read-out: Solubility of glycerol-containing formulations post vortexing, 0%) was less than 2000 µg/mL.
